Data on two compounds can be found in ChEMBL document CHEMBL4507291 (2021).

The structures appear in SMILES notation.

Assay [1] has as its target Phosphatidylinositol 5-phosphate 4-kinase type-2 gamma (Homo sapiens) (UniProt Q8TBX8).
For assay [2], the target named is D(1B) dopamine receptor (Homo sapiens) (UniProt P21918). As to conditions: Compound concentration 10.0 uM.
Assay [3] has as its target Serine/threonine-protein kinase TNNI3K (Homo sapiens) (UniProt Q59H18).
In assay [4] the target is T1, Serine/threonine-protein kinase Sgk2 (Homo sapiens) (UniProt Q9HBY8).
T1 sequence (whole entry): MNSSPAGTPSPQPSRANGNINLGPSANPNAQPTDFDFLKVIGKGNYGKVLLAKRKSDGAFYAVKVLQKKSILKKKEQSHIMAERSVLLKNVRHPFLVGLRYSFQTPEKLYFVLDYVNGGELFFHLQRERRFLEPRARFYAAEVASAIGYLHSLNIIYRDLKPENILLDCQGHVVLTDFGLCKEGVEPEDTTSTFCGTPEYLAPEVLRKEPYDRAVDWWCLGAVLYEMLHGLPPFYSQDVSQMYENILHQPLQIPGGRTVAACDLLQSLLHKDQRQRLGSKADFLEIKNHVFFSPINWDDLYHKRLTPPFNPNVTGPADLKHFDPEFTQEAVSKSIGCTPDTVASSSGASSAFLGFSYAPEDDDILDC

Assay [5] addresses Casein kinase II subunit alpha (Homo sapiens) (UniProt P68400).
For assay [6], the system named is Tyrosine-protein kinase ABL1 (Homo sapiens), P00519 [F317I].
In assay [7] the target is Calcium/calmodulin-dependent protein kinase type 1B (Homo sapiens) (UniProt Q6P2M8).
Chain of Calcium/calmodulin-dependent protein kinase type 1B (Homo sapiens) (Q6P2M8 whole entry): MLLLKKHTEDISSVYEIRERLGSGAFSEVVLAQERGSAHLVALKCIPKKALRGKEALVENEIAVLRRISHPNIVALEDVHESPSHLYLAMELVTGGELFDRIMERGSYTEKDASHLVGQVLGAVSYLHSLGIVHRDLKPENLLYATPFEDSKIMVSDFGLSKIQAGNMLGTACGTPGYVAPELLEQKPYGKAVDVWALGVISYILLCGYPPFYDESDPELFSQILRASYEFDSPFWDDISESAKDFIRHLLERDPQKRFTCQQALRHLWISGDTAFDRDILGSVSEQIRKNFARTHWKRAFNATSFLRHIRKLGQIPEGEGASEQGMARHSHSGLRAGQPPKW
In assay [8] the target is T2, Serine/threonine-protein kinase Sgk1 (Homo sapiens) (UniProt O00141).
T2 sequence (whole entry): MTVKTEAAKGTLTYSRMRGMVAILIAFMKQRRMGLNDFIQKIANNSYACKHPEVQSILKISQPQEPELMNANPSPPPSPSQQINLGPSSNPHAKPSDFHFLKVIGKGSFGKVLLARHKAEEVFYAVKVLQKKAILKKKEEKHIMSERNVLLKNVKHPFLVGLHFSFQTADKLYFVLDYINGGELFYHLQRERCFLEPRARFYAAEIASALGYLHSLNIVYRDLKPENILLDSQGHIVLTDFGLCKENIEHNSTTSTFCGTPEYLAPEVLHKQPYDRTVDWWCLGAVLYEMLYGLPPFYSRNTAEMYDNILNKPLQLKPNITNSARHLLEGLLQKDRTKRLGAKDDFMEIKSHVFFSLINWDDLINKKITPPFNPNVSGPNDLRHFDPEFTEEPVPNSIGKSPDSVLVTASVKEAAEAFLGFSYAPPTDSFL

The target in assay [9] is Activin receptor type-2A (Homo sapiens) (UniProt P27037).
Chain of Activin receptor type-2A (Homo sapiens) (P27037 whole entry): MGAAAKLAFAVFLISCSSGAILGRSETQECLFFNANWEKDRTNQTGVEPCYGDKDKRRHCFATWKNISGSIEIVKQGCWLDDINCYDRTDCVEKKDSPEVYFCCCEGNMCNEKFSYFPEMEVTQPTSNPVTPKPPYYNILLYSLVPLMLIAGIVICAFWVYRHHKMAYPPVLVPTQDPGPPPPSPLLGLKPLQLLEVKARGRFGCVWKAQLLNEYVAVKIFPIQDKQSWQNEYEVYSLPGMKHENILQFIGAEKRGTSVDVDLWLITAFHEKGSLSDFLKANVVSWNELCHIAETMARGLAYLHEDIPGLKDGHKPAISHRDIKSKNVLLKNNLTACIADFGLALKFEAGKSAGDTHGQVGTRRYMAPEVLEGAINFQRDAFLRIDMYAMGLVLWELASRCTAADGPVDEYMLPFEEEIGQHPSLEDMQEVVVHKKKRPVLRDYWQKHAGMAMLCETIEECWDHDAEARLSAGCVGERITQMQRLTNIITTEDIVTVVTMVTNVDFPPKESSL
The target of assay [10] is Serine/threonine-protein kinase MRCK beta (Homo sapiens) (UniProt Q9Y5S2).
The target of assay [11] is Cyclin-dependent kinase-like 2 (Homo sapiens) (UniProt Q92772).
Chain of Cyclin-dependent kinase-like 2 (Homo sapiens) (Q92772 whole entry): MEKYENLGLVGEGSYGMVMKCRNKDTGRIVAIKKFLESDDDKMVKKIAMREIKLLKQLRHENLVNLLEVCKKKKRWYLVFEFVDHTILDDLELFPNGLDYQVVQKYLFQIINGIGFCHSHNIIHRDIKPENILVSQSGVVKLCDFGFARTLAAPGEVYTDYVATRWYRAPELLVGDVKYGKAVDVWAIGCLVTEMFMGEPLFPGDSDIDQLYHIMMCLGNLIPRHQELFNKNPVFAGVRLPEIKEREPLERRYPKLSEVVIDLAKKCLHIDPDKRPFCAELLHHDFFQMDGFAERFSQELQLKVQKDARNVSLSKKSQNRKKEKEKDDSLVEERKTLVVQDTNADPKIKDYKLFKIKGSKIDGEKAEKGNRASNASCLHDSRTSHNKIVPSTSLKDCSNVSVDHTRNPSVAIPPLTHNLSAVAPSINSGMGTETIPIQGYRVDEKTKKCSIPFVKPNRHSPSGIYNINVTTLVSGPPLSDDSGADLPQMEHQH
Assay [12] concerns the target T3, Muscle, skeletal receptor tyrosine-protein kinase (Homo sapiens) (UniProt O15146).
T3 sequence (whole entry): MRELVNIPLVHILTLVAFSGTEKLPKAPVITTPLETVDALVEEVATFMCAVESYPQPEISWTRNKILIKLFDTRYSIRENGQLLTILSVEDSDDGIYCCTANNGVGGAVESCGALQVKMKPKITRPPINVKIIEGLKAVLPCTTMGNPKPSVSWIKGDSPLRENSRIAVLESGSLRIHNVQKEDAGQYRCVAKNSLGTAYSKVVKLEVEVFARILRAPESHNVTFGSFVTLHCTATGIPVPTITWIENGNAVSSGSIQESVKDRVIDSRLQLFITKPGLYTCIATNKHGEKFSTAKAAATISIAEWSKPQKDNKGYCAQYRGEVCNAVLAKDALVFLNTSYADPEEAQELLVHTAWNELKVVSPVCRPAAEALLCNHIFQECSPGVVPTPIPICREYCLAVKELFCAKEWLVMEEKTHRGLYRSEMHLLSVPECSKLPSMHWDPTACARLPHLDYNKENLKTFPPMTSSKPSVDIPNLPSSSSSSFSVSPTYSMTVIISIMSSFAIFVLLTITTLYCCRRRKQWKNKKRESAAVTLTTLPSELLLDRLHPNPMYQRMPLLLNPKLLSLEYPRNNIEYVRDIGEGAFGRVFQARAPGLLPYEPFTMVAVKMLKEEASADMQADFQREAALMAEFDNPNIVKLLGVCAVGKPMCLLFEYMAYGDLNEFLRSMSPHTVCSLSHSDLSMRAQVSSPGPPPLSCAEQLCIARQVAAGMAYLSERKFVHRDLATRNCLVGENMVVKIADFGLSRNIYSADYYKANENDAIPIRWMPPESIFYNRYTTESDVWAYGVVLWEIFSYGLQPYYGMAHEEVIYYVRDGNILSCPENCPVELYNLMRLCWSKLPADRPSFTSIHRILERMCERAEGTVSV

Assay [13] relates to Epidermal growth factor receptor (Homo sapiens), P00533 [G719S].
Assay [14] has as its target Ephrin type-A receptor 7 (Homo sapiens) (UniProt Q15375).
Assay [15] deals with Mast/stem cell growth factor receptor Kit (Homo sapiens), P10721 [L576P].
Chain of Mast/stem cell growth factor receptor Kit (Homo sapiens), P10721 [L576P] (P10721 whole entry L576P, canonical isoform): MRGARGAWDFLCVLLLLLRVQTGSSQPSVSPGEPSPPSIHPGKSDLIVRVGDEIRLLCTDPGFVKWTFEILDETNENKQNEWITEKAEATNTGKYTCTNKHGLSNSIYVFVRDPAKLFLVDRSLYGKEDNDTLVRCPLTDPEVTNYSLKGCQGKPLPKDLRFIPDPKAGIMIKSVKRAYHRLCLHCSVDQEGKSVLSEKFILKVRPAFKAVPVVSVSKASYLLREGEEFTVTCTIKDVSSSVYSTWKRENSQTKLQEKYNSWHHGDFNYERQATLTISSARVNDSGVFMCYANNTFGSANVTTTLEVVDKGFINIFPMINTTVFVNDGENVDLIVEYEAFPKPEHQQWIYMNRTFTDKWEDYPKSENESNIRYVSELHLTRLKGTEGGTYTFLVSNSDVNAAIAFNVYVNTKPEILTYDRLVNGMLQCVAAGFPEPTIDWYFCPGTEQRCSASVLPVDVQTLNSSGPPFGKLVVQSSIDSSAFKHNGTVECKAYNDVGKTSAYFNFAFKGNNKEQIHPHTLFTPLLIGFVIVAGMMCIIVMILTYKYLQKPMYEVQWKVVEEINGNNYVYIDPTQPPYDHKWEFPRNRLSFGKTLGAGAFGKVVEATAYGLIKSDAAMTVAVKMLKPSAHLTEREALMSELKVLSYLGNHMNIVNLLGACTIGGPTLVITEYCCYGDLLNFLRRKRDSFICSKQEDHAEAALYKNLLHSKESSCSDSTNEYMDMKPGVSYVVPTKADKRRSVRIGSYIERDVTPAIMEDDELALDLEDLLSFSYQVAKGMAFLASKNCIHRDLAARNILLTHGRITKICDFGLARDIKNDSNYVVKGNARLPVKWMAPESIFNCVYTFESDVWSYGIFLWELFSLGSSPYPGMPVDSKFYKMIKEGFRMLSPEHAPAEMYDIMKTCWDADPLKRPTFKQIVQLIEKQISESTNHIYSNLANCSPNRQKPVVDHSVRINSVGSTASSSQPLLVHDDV
Assay [16] has as its system Phosphatidylinositol 4,5-bisphosphate 3-kinase catalytic subunit alpha isoform (Homo sapiens), P42336 [M1043I].
Assay [17] concerns the target Dual specificity tyrosine-phosphorylation-regulated kinase 1B (Homo sapiens) (UniProt Q9Y463). The assay can be described thus: DYRK1B Kinase screen. The conditions noted are these: Compound concentration 1.0 uM.
The target of assay [18] is Leukocyte tyrosine kinase receptor (Homo sapiens) (UniProt P29376). The assay can be described thus: LTK (TYK1) Kinase screen. As to conditions: Compound concentration 1.0 uM.
Assay [19] has as its target Ephrin type-A receptor 7 (Homo sapiens) (UniProt Q15375). The assay can be described thus: EPHA7 Kinase screen. As to conditions: Compound concentration 1.0 uM.
The target of assay [20] is Proto-oncogene tyrosine-protein kinase receptor Ret (Homo sapiens) (UniProt P07949). The assay can be described thus: RET Kinase screen. As to conditions: Compound concentration 1.0 uM.
For assay [21], the target named is Tyrosine-protein kinase Yes (Homo sapiens) (UniProt P07947). The assay can be described thus: YES1 Kinase screen. As to conditions: Compound concentration 1.0 uM.
For assay [22], the target named is Cyclin-dependent kinase 5/CDK5 activator 1 (Homo sapiens) (UniProt Q00535+Q15078). The assay can be described thus: CDK5/p25 Kinase screen. In kind it is protein-complex assay. As to conditions: Compound concentration 1.0 uM.
The mark [23] stands for this setting: Compound concentration 1000.0 nM.
Where [24] appears, read: Compound concentration 100.0 nM.

Chain of Ephrin type-A receptor 7 (Homo sapiens) (Q15375 28-998 limits assumed): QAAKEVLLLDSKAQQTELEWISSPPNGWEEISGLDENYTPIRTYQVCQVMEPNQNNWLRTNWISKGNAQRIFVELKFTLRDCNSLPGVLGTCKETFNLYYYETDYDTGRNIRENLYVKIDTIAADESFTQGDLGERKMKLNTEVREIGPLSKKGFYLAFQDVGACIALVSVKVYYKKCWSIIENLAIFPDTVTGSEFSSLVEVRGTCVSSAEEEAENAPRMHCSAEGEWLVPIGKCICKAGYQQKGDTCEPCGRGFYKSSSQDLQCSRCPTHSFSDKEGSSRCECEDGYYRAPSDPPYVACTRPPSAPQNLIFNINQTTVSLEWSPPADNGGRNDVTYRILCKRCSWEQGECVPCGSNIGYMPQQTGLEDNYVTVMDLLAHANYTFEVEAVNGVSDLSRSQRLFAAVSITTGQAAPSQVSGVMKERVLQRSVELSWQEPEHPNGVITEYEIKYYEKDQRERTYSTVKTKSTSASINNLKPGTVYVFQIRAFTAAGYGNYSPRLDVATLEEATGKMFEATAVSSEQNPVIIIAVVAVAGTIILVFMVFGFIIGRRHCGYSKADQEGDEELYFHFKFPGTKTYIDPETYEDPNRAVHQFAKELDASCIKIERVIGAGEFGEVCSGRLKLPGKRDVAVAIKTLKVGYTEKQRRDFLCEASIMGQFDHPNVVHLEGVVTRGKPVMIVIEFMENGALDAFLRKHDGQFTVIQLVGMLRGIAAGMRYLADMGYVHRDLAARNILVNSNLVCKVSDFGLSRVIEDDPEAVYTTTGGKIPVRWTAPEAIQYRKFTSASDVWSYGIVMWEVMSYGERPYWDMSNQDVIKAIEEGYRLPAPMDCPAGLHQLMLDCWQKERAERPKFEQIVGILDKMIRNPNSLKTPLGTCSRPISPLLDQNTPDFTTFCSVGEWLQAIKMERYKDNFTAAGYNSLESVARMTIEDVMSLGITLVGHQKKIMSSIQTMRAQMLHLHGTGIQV
Chain of Casein kinase II subunit alpha (Homo sapiens) (P68400 whole entry, looked up): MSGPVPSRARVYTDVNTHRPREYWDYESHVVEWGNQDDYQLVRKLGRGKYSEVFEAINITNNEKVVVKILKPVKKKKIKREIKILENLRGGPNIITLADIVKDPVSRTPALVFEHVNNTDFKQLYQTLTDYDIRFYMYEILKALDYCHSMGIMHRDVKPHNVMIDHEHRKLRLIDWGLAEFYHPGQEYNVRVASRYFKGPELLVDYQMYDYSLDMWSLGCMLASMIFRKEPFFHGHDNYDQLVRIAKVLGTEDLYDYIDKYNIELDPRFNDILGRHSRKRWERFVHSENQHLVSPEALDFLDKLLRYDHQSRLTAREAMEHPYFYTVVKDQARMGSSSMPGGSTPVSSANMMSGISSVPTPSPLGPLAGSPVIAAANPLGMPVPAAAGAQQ
Chain of Phosphatidylinositol 4,5-bisphosphate 3-kinase catalytic subunit alpha isoform (Homo sapiens), P42336 [M1043I] (P42336 whole entry M1043I, canonical isoform): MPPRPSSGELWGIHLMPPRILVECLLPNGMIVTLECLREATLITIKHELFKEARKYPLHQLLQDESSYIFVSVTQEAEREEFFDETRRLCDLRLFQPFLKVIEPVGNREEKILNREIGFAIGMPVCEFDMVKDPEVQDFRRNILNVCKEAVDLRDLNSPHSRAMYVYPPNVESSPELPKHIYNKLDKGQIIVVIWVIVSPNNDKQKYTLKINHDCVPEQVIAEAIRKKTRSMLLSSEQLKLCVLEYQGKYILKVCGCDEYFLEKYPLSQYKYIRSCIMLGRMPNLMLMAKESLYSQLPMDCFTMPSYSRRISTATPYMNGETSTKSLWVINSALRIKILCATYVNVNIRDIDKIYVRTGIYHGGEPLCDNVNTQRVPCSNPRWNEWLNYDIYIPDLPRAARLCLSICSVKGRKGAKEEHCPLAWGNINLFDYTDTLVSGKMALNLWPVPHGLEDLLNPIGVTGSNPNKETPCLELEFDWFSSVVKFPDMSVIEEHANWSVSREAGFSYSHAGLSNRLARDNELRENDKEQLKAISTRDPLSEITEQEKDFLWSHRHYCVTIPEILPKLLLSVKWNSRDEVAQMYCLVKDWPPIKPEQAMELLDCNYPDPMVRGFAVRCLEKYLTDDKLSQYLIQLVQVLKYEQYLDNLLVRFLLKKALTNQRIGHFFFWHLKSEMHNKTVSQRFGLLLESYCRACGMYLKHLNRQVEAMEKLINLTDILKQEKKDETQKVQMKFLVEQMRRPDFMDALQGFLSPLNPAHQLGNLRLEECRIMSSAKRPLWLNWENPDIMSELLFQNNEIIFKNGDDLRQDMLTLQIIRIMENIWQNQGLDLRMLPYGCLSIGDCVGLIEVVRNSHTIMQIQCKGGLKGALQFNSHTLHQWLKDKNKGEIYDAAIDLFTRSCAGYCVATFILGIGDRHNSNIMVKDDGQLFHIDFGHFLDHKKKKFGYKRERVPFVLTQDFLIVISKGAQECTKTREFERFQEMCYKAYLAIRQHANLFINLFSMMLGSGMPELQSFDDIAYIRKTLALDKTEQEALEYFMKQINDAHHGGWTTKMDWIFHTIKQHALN

As for `C[C@@H]1CN(c2cc(-c3nn(C)c4ccc(OC5(C)CC5)cc34)ncn2)C[C@H](C)O1` [MLi-2-NC], the residual activity (usually the signal under treatment as a percentage of the control signal) was 98% in assay [1] (setting [23]); 71% in assay [3] (setting [23]); 58% in assay [4] (setting [23]); 76% in assay [5] (setting [23]); 62% in [6] (setting [23]); 100% in assay [7] (setting [23]). For the same compound, the residual activity in assay [8] (setting [23]) was 47%; in [9] (setting [23]), 100%; in [10] (setting [23]) it was 100%; in [11] (setting [23]), 100%; in assay [12] (setting [23]), 92%; in assay [13] (setting [23]), 72%. For the same compound, the residual activity in assay [14] (setting [23]) was 99%; in assay [15] (setting [23]), 100%; in [16] (setting [23]), 96%. The inhibition (usually the relative decrease from the control value, in per cent) in assay [2] was 3.61%.

On to `C[C@@H]1CN(c2cc(-c3n[nH]c4ccc(OC5(C)CC5)cc34)ncn2)C[C@H](C)O1` [MLi-2], for which the residual activity in assay [1] (setting [24]) was 90%; in assay [3] (setting [24]), 78%; in assay [4] (setting [24]) it was 84%; in assay [5] (setting [24]) it was 66%; in [6] (setting [24]), 74%; in [7] (setting [24]) it was 67%. The residual activity in [8] (setting [24]) is 89%; in assay [9] (setting [24]), 94%; in assay [10] (setting [24]) it was 93%; in assay [11] (setting [24]), 100%; in assay [12] (setting [24]), 56%; in assay [13] (setting [24]), 59%. Further, the residual activity in [14] (setting [24]) is 82%; in [15] (setting [24]) it was 100%; in assay [16] (setting [24]), 82%. Besides, the inhibition in [2] is 16.1%; in [17] it was 1.77%; in assay [18], 42.4%; in [19], 8.11%; in assay [20], 5.76%; in assay [21], 5.77%. In addition, in [22], the inhibition is -2.71%.
